Experimental data published in ChEMBL document CHEMBL1255316, “A peptide with a ProGln C terminus in the human saliva peptidome exerts bactericidal activity against Propionibacterium acnes” (Antimicrob Agents Chemother, 2008).
Calls of active or inactive are those of the source. The rule behind the calls is not given here. Residues, ends and D or L forms follow the SMILES beside them.

Key:
Cell membrane [1] = assay: Binding affinity to membrane of Propionibacterium acnes ATCC 6919 at 10 uM after 1 hr by fluorescence microscopy under anaerobic condition; assay type: functional; settings: Cutibacterium acnes, Plasma membrane
Cutibacterium acnes [2] = assay: Antibacterial activity against Propionibacterium acnes assessed as attenuation of colonization at 100 uM incubated with compound for 3 hrs measured after 2 days; assay type: functional, organism-based
Porphyromonas gingivalis = assay: Binding affinity to membrane of Porphyromonas gingivalis ATCC 33277 at 10 uM after 1 hr by fluorescence microscopy under anaerobic condition; assay type: functional
Cutibacterium acnes [3] = assay: Antibacterial activity against Propionibacterium acnes assessed as attenuation of colonization at 10 uM incubated with compound for 3 hrs measured after 2 days; assay type: functional, organism-based
Cutibacterium acnes [4] = assay: Antibacterial activity against Propionibacterium acnes assessed as attenuation of colonization at 1 uM incubated with compound for 3 hrs measured after 2 days; assay type: functional, organism-based
Cell membrane [5] = assay: Binding affinity to membrane of Propionibacterium acnes ATCC 6919 at 1 uM after 1 hr by fluorescence microscopy under anaerobic condition; assay type: functional; settings: Cutibacterium acnes, Plasma membrane

Question: For N=C(N)NCCC[C@H](NC(=O)[C@H](CCCCN)NC(=O)CNC(=O)[C@@H](N)CS)C(=O)N[C@@H](CCCCN)C(=O)O (H-CGKRK-OH), which Activity (Cell membrane [1]) is on record?
Answer: Its Activity is “inactive”.

Question: Which Activity (Cutibacterium acnes [2]) does the source give for N=C(N)NCCC[C@H](NC(=O)CNC(=O)CNC(=O)[C@H](CCC(N)=O)NC(=O)[C@@H]1CCCN1C(=O)[C@@H]1CCCN1C(=O)[C@@H]1CCCN1C(=O)CN)C(=O)N1CCC[C@H]1C(=O)N[C@@H](CCC(N)=O)C(=O)O (H-GPPPQGGRPQ-OH) here?
Answer: The Activity was “Active”.

Question: And the Activity (Porphyromonas gingivalis)?
Answer: Its Activity is “inactive”.

Question: And the Activity (Cutibacterium acnes [3])?
Answer: The Activity was “Active”.

Question: What about the Activity (Cell membrane [1]) of the same compound?
Answer: The Activity was “Active”.

Question: What about the Activity (Cutibacterium acnes [4]) of the same compound?
Answer: Its Activity is “Active”.

Question: And the Activity (Cell membrane [5])?
Answer: The Activity was “Active”.
